Tests used:
[1] = target: IKKε (Homo sapiens (Human), UniProt Q14164); assay: TR-FRET kinase assay, IKKε; assay type: biochemical; details: full length recombinant IKKε 0.3 nM, 2x Km ATP, 1 μM peptide, 240 min at 25° C.; geometric mean of minimum four determinations
Excerpt: Biological Assay for TBK1 and IKKs:

[2] = target: TBK1 (Homo sapiens (Human), UniProt Q9UHD2); assay: TR-FRET kinase assay, TBK1; details: read-out: TBK1-IC50; full length recombinant TBK1 2.5 nM, 2x Km ATP, 1 μM peptide, 240 min at 25° C.; geometric mean of minimum four determinations
TBK1, sequence (Q9UHD2 whole entry): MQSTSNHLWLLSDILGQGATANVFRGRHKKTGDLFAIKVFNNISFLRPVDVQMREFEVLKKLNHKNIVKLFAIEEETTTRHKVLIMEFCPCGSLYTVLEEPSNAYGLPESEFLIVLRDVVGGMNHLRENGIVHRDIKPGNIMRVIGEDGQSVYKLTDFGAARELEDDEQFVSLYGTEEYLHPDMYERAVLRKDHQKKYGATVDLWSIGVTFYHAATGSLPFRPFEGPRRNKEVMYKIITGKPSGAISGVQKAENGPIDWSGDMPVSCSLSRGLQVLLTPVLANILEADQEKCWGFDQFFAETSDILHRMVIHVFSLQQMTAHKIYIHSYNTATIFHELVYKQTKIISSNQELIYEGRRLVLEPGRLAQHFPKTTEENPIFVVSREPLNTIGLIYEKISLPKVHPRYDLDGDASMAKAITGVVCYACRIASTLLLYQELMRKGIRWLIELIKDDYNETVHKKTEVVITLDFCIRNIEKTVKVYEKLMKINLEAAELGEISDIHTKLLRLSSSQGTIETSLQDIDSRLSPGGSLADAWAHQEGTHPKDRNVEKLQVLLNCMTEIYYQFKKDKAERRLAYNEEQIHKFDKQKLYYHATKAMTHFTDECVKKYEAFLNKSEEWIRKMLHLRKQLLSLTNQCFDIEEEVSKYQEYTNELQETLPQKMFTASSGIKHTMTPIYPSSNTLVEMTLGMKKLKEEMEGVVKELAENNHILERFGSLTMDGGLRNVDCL

IKKε, sequence (Q14164 whole entry): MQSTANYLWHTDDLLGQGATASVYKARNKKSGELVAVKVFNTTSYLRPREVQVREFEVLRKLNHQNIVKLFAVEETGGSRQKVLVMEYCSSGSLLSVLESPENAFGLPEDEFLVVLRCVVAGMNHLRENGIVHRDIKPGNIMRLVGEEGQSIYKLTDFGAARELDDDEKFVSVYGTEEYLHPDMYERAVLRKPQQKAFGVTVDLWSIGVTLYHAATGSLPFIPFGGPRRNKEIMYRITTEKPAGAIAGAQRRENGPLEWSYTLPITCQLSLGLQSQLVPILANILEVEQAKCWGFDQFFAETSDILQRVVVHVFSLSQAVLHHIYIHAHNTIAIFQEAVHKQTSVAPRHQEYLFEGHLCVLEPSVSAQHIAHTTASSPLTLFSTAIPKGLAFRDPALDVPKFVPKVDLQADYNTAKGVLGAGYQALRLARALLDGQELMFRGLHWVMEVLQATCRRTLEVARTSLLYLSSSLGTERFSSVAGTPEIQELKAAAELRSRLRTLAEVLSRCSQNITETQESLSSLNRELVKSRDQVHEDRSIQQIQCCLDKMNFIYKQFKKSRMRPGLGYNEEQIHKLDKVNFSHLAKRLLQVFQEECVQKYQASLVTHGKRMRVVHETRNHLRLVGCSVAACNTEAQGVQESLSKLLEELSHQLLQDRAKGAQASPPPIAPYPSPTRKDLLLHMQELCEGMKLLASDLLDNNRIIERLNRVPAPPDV

Row | Compound | IC50 [1] | IC50 [2]
1 | N#Cc1cc(-c2ncnc3[nH]c(-c4ccc(N5CCOCC5)cc4)cc23)ccc1CN1CCCC1=O [Example 115, 5-(6-(4-morpholinophenyl)-7H-pyrrolo[2,3-d]pyrimidin-4-yl)-2-((2-oxopyrrolidin-1-yl)methyl)benzonitrile] | 1000 nM | 45.7 nM
2 | CC(C)(C)OC(=O)N1CC[C@@H](Oc2ccc(-c3ncnc4[nH]c(-c5ccc(N6CCOCC6)cc5)nc34)cc2C#N)C1 [Example 206, (R)-tert-butyl 3-(2-cyano-4-(8-(4-morpholinophenyl)-9H-purin-6-yl)phenoxy)pyrrolidine-1-carboxylate] | > 1000 nM | > 1000 nM
3 | CC(=O)N1CC(Oc2ccc(-c3ccnc4[nH]c(-c5ccc(N6CCOCC6)cc5)cc34)cc2C#N)C1 [Example 153, 2-((1-acetylazetidin-3-yl)oxy)-5-(2-(4-morpholinophenyl)-1H-pyrrolo[2,3-b]pyridin-4-yl)benzonitrile] | 195 nM | 51.1 nM
4 | N#Cc1cc(-c2ccnc3[nH]c(-c4cccc(N5CCOCC5)c4)cc23)ccc1OC1CCOCC1 [Example 78, 5-(2-(3-morpholinophenyl)-1H-pyrrolo[2,3-b]pyridin-4-yl)-2-((tetrahydro-2H-pyran-4-yl)oxy)benzonitrile] | 40.1 nM | 25.5 nM
5 | CC(C)(C)OC(=O)N1CCC(Oc2ccc(-c3ccnc4[nH]c(-c5ccc(N6CCOCC6)cc5)cc34)cc2C#N)CC1 [Example 21, tert-butyl 4-(2-cyano-4-(2-(4-morpholinophenyl)-1H-pyrrolo[2,3-b]pyridin-4-yl)phenoxy)piperidine-1-carboxylate] | > 1000 nM | 696 nM
6 | C[C@H](O)C(=O)N1CC[C@@H](Oc2ccc(-c3ncnc4[nH]c(-c5ccc(N6CCOCC6)cc5)nc34)cc2C#N)C1 [Example 210, 2-(((R)-1-((S)-2-hydroxypropanoyl)pyrrolidin-3-yl)oxy)-5-(8-(4-morpholinophenyl)-9H-purin-6-yl)benzonitrile] | > 875 nM | 38.9 nM
7 | N#Cc1cc(-c2ccnc3[nH]c(-c4ccc(N5CCOCC5)cc4)cc23)ccc1OC1CN(C(=O)CO)C1 [Example 154, 2-((1-(2-hydroxyacetyl)azetidin-3-yl)oxy)-5-(2-(4-morpholinophenyl)-1H-pyrrolo[2,3-b]pyridin-4-yl)benzonitrile] | 146 nM | 32.4 nM
8 | Cc1ccc(-c2ccnc3[nH]c(-c4ccc(N5CCOCC5)cc4)cc23)cc1C#N [Example 69, 2-methyl-5-(2-(4-morpholinophenyl)-1H-pyrrolo[2,3-b]pyridin-4-yl)benzonitrile] | > 1000 nM | 79.7 nM
9 | C[C@@H](O)C(=O)N1CC[C@@H](Oc2ccc(-c3ncnc4[nH]c(-c5ccc(N6CCOCC6)cc5)nc34)cc2C#N)C1 [Example 209, 2-(((R)-1-((R)-2-hydroxypropanoyl)pyrrolidin-3-yl)oxy)-5-(8-(4-morpholinophenyl)-9H-purin-6-yl)benzonitrile] | 58.7 nM | 13.1 nM
10 | N#Cc1cc(-c2ccnc3[nH]c(-c4ccc(C(=O)C(F)(F)F)cc4)cc23)ccc1OC1CCOCC1 [Example 237, 2-((tetrahydro-2H-pyran-4-yl)oxy)-5-(2-(4-(2,2,2-trifluoroacetyl)phenyl)-1H-pyrrolo[2,3-b]pyridin-4-yl)benzonitrile] | 29.7 nM | 11.4 nM
11 | N#Cc1cc(-c2ncnc3[nH]c(-c4cccc(N5CCOCC5)c4)cc23)ccc1CN1CCOCC1 [Example 113, 2-(morpholinomethyl)-5-(6-(3-morpholinophenyl)-7H-pyrrolo[2,3-d]pyrimidin-4-yl)benzonitrile] | 1000 nM | 69.1 nM
12 | N#Cc1cc(-c2ccnc3[nH]c(-c4ccc(N5CCOCC5)cc4)cc23)ccc1N [Example 28, 2-amino-5-(2-(4-morpholinophenyl)-1H-pyrrolo[2,3-b]pyridin-4-yl)benzonitrile] | 119 nM | 11.7 nM
13 | CC(C)(C)OC(=O)N1CC[C@@H](Oc2ccc(-c3ccnc4[nH]c(-c5ccc(N6CCOCC6)cc5)cc34)cc2C#N)C1 [Example 17, (R)-tert-butyl 3-(2-cyano-4-(2-(4-morpholinophenyl)-1H-pyrrolo[2,3-b]pyridin-4-yl)phenoxy)pyrrolidine-1-carboxylate] | 394 nM | 146 nM

Compounds with a lower IC50 [1], results first:

Row | IC50 [1] | IC50 [2] | Compound
14 | 17 nM | 11.8 nM | N#Cc1cc(-c2ccnc3[nH]c(-c4cccnc4)cc23)ccc1OC1CCOCC1 [Example 7, 5-(2-(pyridin-3-yl)-1H-pyrrolo[2,3-b]pyridin-4-yl)-2-((tetrahydro-2H-pyran-4-yl)oxy)benzonitrile]
15 | 8.3 nM | 6.35 nM | N#Cc1cc(-c2c(F)cnc3[nH]c(-c4ccc(OCCN5CCCC5)cc4)cc23)ccc1OC1CCOCC1 [Example 174, 5-(5-fluoro-2-(4-(2-(pyrrolidin-1-yl)ethoxy)phenyl)-1H-pyrrolo[2,3-b]pyridin-4-yl)-2-((tetrahydro-2H-pyran-4-yl)oxy)benzonitrile]
16 | 18.1 nM | 25.1 nM | N#Cc1cc(-c2ccnc3[nH]c(-c4cccc(N5CCOCC5)c4)nc23)ccc1OC1CCOCC1 [Example 308, 5-(2-(3-morpholinophenyl)-3H-imidazo[4,5-b]pyridin-7-yl)-2-((tetrahydro-2H-pyran-4-yl)oxy)benzonitrile]
17 | 0.815 nM | 0.883 nM | CN1CCN(c2ccc(-c3nc4c(-c5ccc(OC6CCN(C(=O)CO)CC6)c(C#N)c5)ncnc4[nH]3)cc2)CC1 [Example 251, 2-((1-(2-hydroxyacetyl)piperidin-4-yl)oxy)-5-(8-(4-(4-methylpiperazin-1-yl)phenyl)-9H-purin-6-yl)benzonitrile]
18 | 7.51 nM | 4.59 nM | N#CCC(=O)N1CC[C@@H](Oc2ccc(-c3ccnc4[nH]c(-c5ccc(N6CCOCC6)cc5)nc34)cc2C#N)C1 [Example 303, (R)-2-((1-(2-cyanoacetyl)pyrrolidin-3-yl)oxy)-5-(2-(4-morpholinophenyl)-3H-imidazo[4,5-b]pyridin-7-yl)benzonitrile]
19 | 4.99 nM | 0.821 nM | CC(C)(O)c1ccc(-c2cc3c(-c4ccc(OC5CCOCC5)c(C#N)c4)ncnc3[nH]2)cc1 [Example 109, 5-(6-(4-(2-hydroxypropan-2-yl)phenyl)-7H-pyrrolo[2,3-d]pyrimidin-4-yl)-2-((tetrahydro-2H-pyran-4-yl)oxy)benzonitrile]
20 | 1.41 nM | 2.38 nM | N#Cc1cc(-c2ccnc3[nH]c(-c4cnn(C5CNC5)c4)cc23)ccc1OC1CCOCC1 [Example 9, 5-(2-(1-(azetidin-3-yl)-1H-pyrazol-4-yl)-1H-pyrrolo[2,3-b]pyridin-4-yl)-2-((tetrahydro-2H-pyran-4-yl)oxy)benzonitrile]
21 | 7.95 nM | 8.87 nM | N#Cc1cc(-c2ncnc3[nH]c(-c4ccc(CN5CCOCC5)cc4)nc23)ccc1OC1CCN(C(=O)C(F)F)CC1 [Example 266, 2-((1-(2,2-difluoroacetyl)piperidin-4-yl)oxy)-5-(8-(4-(morpholinomethyl)phenyl)-9H-purin-6-yl)benzonitrile]
22 | 14.1 nM | 7.91 nM | Cc1ncc(-c2cc3c(-c4ccc(OC5CCOCC5)c(C#N)c4)ncnc3[nH]2)s1 [Example 190, 5-(6-(2-methylthiazol-5-yl)-7H-pyrrolo[2,3-d]pyrimidin-4-yl)-2-((tetrahydro-2H-pyran-4-yl)oxy)benzonitrile]
23 | 18.6 nM | 5.9 nM | Cc1cc(N2CCOCC2)ccc1-c1cc2c(-c3ccc(OC4CCOCC4)c(C#N)c3)ccnc2[nH]1 [Example 124, 5-(2-(2-methyl-4-morpholinophenyl)-1H-pyrrolo[2,3-b]pyridin-4-yl)-2-((tetrahydro-2H-pyran-4-yl)oxy)benzonitrile]
24 | 1.88 nM | 1.16 nM | CN1CCN(C(=O)c2ccc(-c3cc4c(-c5ccc(OC6CCOCC6)c(C#N)c5)ncnc4[nH]3)cc2)CC1 [Example 187, 5-(6-(4-(4-methylpiperazine-1-carbonyl)phenyl)-7H-pyrrolo[2,3-d]pyrimidin-4-yl)-2-((tetrahydro-2H-pyran-4-yl)oxy)benzonitrile]
25 | 5.09 nM | 2.17 nM | COC(=O)c1ccc(-c2cc3c(-c4ccc(OC5CCN(C(=O)CO)CC5)c(C#N)c4)ncnc3[nH]2)cc1 [Example 159, Methyl 4-(4-(3-cyano-4-((1-(2-hydroxyacetyl)piperidin-4-yl)oxy)phenyl)-7H-pyrrolo[2,3-d]pyrimidin-6-yl)benzoate]
26 | 2.04 nM | 3.33 nM | N#Cc1cc(-c2ncnc3[nH]c(-c4ccc(OCCN5CCCC5)cc4)nc23)ccc1OC1CCN(C(=O)CO)CC1 [Example 233, 2-((1-(2-hydroxyacetyl)piperidin-4-yl)oxy)-5-(8-(4-(2-(pyrrolidin-1-yl)ethoxy)phenyl)-9H-purin-6-yl)benzonitrile]
27 | 3.37 nM | 2.5 nM | CN1CCN(c2ccc(-c3cc4c(-c5ccc(OC6CCOCC6)c(C#N)c5)ncnc4[nH]3)cc2)CC1 [Example 219, 5-(6-(4-(4-methylpiperazin-1-yl)phenyl)-7H-pyrrolo[2,3-d]pyrimidin-4-yl)-2-((tetrahydro-2H-pyran-4-yl)oxy)benzonitrile]
28 | 7.37 nM | 2.28 nM | COc1cc(-c2cc3c(-c4ccc(OC5CCOCC5)c(C#N)c4)ncnc3[nH]2)ccc1N1CCN(S(C)(=O)=O)CC1 [Example 135, 5-(6-(3-methoxy-4-(4-(methylsulfonyl)piperazin-1-yl)phenyl)-7H-pyrrolo[2,3-d]pyrimidin-4-yl)-2-((tetrahydro-2H-pyran-4-yl)oxy)benzonitrile]
29 | 10.8 nM | 3.2 nM | N#Cc1cc(-c2ccnc3[nH]c(-c4ccc(N5CCOCC5)cc4)nc23)ccc1OC1CCOCC1 [Example 305, 5-(2-(4-morpholinophenyl)-3H-imidazo[4,5-b]pyridin-7-yl)-2-((tetrahydro-2H-pyran-4-yl)oxy)benzonitrile]
